Details: for molar entropy: 101.33 kPa, Small (less than 1 g) adiabatic calorimetry; for Triple point temperature: Adiabatic calorimetry

CCCCn1cc[n+](C)c1.O=[N+]([O-])[O-] [1-butyl-3-methylimidazolium nitrate]
Details | molar entropy [J/K/mol]
5 K, Crystal 4 | 0.18
10 K, Crystal 4 | 1.52
15 K, Crystal 4 | 4.64
20 K, Crystal 4 | 9.379
25 K, Crystal 4 | 15.39
30 K, Crystal 4 | 22.34
35 K, Crystal 4 | 29.9
40 K, Crystal 4 | 37.83
45 K, Crystal 4 | 45.98
50 K, Crystal 4 | 54.22
55 K, Crystal 4 | 62.47
60 K, Crystal 4 | 70.67
70 K, Crystal 4 | 86.8
80 K, Crystal 4 | 102.4
90 K, Crystal 4 | 117.4
100 K, Crystal 4 | 131.8
110 K, Crystal 4 | 145.6
120 K, Crystal 4 | 158.9
130 K, Crystal 4 | 171.8
140 K, Crystal 4 | 184.2
150 K, Crystal 4 | 196.3
160 K, Crystal 4 | 208.1
170 K, Crystal 4 | 219.7
180 K, Crystal 4 | 231
190 K, Crystal 4 | 242.1
200 K, Crystal 4 | 253.1
210 K, Crystal 4 | 264
220 K, Crystal 4 | 274.7
230 K, Crystal 4 | 285.4
240 K, Crystal 4 | 296.1
250 K, Crystal 4 | 306.6
260 K, Crystal 4 | 317.1
270 K, Crystal 4 | 327.5
278.2 K, Crystal 3 | 343.5
278.2 K, Crystal 4 | 336
280 K, Crystal 3 | 345.3
285 K, Crystal 3 | 350.5
288.1 K, Crystal 2 | 354.9
288.1 K, Crystal 3 | 353.7
290 K, Crystal 2 | 356.9
292.2 K, Crystal 1 | 359.7
292.2 K, Crystal 2 | 359.2
295 K, Crystal 1 | 362.6
298.15 K, Crystal 1 | 365.8
300 K, Crystal 1 | 367.7
309.16 K, Crystal 1 | 377.1
309.16 K, Liquid | 435.3
310 K, Liquid | 436.3
320 K, Liquid | 447.7
330 K, Liquid | 458.9
340 K, Liquid | 469.9
350 K, Liquid | 480.7
360 K, Liquid | 491.2
370 K, Liquid | 501.6

Details | Triple point temperature [K]
Crystal 1 | 309.16
Crystal 2 | 292.2
Crystal 3 | 288.1
Crystal 4 | 278.8

Reference: the NIST ThermoML archive (doi:10.1016/j.tca.2008.05.002)
